We go through one compound from patent publication US20250368648A1, “MULTI-CYCLIC IRAK AND FLT3 INHIBITING COMPOUNDS AND USES THEREOF” (CHILDREN'S HOSPITAL MEDICAL CENTER, priority 2022, published 2025).

Holding throughout (details): no ATP
One assay has as its target T1, FLT3 ITD, D835V (Homo sapiens, UniProt P36888, D835V, form not given).
T1 construct: fused on or other part: DNA tag for qPCR read-out (T7 phage fusion, or DNA-tagged kinase made in HEK-293 cells)
T1 sequence (P36888 1-993 D835V): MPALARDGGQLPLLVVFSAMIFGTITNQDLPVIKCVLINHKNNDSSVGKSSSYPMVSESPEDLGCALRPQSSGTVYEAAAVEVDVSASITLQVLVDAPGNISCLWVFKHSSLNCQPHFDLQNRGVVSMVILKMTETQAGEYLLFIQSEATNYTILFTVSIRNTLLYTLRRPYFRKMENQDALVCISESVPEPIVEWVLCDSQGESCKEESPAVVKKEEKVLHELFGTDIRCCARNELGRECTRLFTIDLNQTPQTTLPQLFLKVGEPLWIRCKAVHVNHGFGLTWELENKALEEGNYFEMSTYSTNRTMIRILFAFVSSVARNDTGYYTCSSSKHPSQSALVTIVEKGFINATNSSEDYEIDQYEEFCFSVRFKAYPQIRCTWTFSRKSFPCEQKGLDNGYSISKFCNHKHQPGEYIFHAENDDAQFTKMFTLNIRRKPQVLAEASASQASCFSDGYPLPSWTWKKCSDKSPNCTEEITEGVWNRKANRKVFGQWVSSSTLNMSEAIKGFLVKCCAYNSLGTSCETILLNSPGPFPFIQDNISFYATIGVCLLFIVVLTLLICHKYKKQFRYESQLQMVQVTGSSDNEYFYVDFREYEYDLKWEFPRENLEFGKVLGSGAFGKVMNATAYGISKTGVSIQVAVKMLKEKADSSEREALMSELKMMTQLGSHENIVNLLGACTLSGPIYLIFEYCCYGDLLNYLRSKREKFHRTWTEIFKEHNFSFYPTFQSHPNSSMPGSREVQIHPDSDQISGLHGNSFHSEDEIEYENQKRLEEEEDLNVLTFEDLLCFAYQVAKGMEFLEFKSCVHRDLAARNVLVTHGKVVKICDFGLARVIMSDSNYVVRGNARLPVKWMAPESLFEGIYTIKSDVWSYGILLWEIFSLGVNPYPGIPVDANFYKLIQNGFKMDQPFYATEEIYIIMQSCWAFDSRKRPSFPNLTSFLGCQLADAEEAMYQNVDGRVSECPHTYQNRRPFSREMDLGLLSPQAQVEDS
The experiment in a line: DiscoverX KINOMEscan competition binding, FLT3 ITD, D835V. The source says:
(§1) Kinase binding data were obtained for various exemplary compounds prepared according to Examples 2-15 using the DiscoverX KINOMEscan® active site-directed competition binding site-directed assay protocol described below. […] As a result, the data report thermodynamic interaction affinities (Kd values), rather than IC50 values that are dependent on ATP concentrations. The assay uses a DNA-tagged version of the protein kinase, and an immobilized ligand bound to a solid support. Compounds that directly or indirectly prevent kinase binding to the immobilized ligand reduce the amount of kinase captured on the solid support, which is detected using an ultra-sensitive qPCR method. Affinity constants reported from the assay have been reported to be independent of the immobilized ligand used that is coupled to the solid support (See supplemental information in Fabian, M. A. et. al., (2005) Nat. […] Wodicka, L. […] Biol. 17, 1241-1249.) Kinase-tagged T7 phage strains were prepared in an E. coli host derived from the BL21 strain. E. coli were grown to log-phase and infected with T7 phage and incubated with shaking at 32° C. until lysis. […] Kds were determined using an 11-point 3-fold compound dilution series with three DMSO control points. […] The kinase concentration in the eluates was measured by qPCR. Binding constants (Kds) were calculated with a standard dose-response curve using the Hill equation. […]

Another assay has as its target T2, FLT3 Autoinh. (Homo sapiens, UniProt P36888).
T2 construct: purchased DiscoverX (KINOMEscan); host or cells: E. coli (T7 phage) or HEK-293
T2 sequence (P36888 564-993 limits assumed): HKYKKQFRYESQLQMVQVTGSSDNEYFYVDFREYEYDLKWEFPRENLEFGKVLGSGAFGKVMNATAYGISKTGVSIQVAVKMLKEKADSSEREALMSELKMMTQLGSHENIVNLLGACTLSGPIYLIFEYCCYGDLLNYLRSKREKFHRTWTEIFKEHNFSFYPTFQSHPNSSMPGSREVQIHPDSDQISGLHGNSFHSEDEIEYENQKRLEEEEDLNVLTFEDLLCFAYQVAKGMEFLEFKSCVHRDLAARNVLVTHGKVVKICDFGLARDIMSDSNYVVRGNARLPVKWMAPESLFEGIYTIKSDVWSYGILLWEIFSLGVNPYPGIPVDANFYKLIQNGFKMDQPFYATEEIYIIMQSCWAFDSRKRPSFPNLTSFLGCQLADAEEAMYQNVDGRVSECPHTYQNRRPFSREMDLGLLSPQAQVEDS
The experiment in a line: DiscoverX KINOMEscan competition binding, FLT3 Autoinh.
Excerpt: as §1

A further assay concerns the target T3, IRAK1 (Homo sapiens, UniProt P51617).
T3 construct: purchased RBC (Reaction Biology) HotSpot assay
The assay can be described thus: DiscoverX KINOMEscan competition binding, IRAK1.
Excerpt: as §1

Another assay concerns the target T4, IRAK4 (Homo sapiens, UniProt Q9NWZ3).
T4 sequence (Q9NWZ3 1-460): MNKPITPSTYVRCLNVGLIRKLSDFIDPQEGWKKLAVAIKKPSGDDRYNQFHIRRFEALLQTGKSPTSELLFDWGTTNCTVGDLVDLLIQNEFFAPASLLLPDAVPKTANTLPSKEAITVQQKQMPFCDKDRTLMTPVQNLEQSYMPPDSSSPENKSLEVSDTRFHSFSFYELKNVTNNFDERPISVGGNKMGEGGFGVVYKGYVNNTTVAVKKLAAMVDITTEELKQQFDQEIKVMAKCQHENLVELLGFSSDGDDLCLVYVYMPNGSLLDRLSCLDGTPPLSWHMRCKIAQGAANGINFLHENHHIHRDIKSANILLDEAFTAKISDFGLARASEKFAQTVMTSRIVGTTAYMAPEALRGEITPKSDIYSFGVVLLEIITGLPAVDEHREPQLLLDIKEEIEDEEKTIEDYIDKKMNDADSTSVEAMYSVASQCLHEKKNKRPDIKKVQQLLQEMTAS
The experiment in a line: DiscoverX KINOMEscan competition binding, IRAK4. Details: purchased RBC (Reaction Biology) HotSpot assay.
Excerpt: as §1

T3 sequence (P51617 whole entry): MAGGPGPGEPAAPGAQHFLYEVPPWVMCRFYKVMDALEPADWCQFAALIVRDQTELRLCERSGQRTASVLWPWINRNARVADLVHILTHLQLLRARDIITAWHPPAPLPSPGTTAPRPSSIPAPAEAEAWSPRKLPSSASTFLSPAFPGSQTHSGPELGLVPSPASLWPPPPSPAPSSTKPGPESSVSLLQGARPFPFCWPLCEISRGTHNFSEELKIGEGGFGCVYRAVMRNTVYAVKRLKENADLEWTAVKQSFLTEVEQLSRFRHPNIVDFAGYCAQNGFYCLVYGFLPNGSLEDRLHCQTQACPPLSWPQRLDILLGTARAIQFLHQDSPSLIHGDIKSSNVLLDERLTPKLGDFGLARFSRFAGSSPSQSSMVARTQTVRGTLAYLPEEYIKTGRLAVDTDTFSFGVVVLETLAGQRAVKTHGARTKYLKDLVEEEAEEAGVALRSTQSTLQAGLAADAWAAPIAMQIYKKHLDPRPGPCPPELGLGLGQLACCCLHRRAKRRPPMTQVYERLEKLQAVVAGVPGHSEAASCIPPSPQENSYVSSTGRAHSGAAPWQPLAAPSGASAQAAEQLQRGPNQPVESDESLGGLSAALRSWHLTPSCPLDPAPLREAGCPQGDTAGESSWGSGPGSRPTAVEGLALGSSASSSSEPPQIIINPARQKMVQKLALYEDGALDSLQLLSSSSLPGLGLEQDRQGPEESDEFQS

In the case of `COc1cc2ncc(-c3nc(N[C@H]4CNCC[C@@H]4F)c(F)cc3F)n2nc1C1CCC1` [Compound 15a, 6-(6-cyclobutyl-7-methoxyimidazo[1,2-b]pyridazin-3-yl)-3,5-difluoro-N-((3S,4S)-4-fluoropiperidin-3-yl)pyridin-2-amine], the Kd on FLT3 ITD, D835V was less than 0.17 nM; on FLT3 Autoinh., 5.8 nM; at IRAK1 it was 1.4 nM; on IRAK4, 0.32 nM.
